Legend:
Erlich tumors = test: In vivo efficacy (delay in tumor growth, T/C) in Balb/C mice carrying Erlich tumors
Protocol: For each of the following examples, the pharmaceutical formulations were prepared just prior to use. Various amounts of brefeldin A (mg of drug/kg animal's body weight) were weighed out and varying amounts of solvent was used to mix the drug. The mixtures were either vortexed (mechanical mixing) or sonicated until drug was either completely soluble or only a very small amount appeared to settle in the bottom the test tube. Chitin was then added and the mixture was sonicated.
Six days following inoculation, the mice normally grew a tumor on each flank, ranging in size from 100 to 120 mm^3. The mice (average weight=25 g) were randomized and separated into groups. Each tumor was then measured and the tumor volume calculated and recorded. In experimental groups, one tumor on each mouse was treated with the appropriate agent (drug versus drug in formulation) with an injection volume of 50 ul using a 22G½ needle. The control group was left untreated.
Antitumor activity was determined by inhibition of tumor growth and survival rate. Each tumor was measured two to three times per week. In nude mice, tumors were measured for 10 days or until mice survived. In Balb/C tumors were measured for up to 20 days following treatment. The volume of the tumor was calculated and recorded. Tumor volume data is analyzed by using simple regression model. […]
Balb/C mice are divided into groups and given treatments according to Table 4. Mice are observed daily to evaluate lethal toxicity and tumors are measured on alternate days for 20 days. […]

Balb/C mice = test: Survival of Balb/C mice following treatment (deaths due to toxicity); type: in vivo; details: Example 3
From the text: Balb/C mice are divided into groups and given treatments according to Table 3. Mice are observed daily for 25 days for deaths due to toxicity.
Balb/C mice are divided into groups and given treatments according to Table 7.

C[C@H]1CCC/C=C/[C@@H]2C[C@H](O)C[C@H]2[C@H](O)/C=C/C(=O)O1 [brefeldin A]
T/C ratio of delay in tumor growth (Erlich tumors; Example 2, groups 5, 6, and 7, given with the solvent (DMA 5-20 μl), no chitin): 1.25-1.75 | T/C ratio of delay in tumor growth (Erlich tumors; Example 2, groups 8, 9, and 10, delivered with DMA (5-20 μl) and chitin): 2.00-2.75 | T/C ratio of delay in tumor growth (Erlich tumors; Example 4, groups 4, 5, and 6, BFA 2 mg delivered with DMA and chitin): 2.50-2.85 | T/C ratio of delay in tumor growth (Erlich tumors; Example 4, groups 7, 8, and 9, decreased dose of brefeldin A (0.5 mg) with DMA and chitin): 2.30-2.55 | toxicity to mice (Balb/C mice; high doses (80 mg/kg and 40 mg/kg) with DMA, groups 4 and 8): most toxic | toxicity to mice (Balb/C mice; when chitin is added to the formulation (with DMA)): less toxicity
